Data as given in ChEMBL document CHEMBL1201862, “PubChem BioAssay data set” (2004).
Structures can show the parent of a compound that is named as a salt.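 Growth conditions: 96-well plates. Treatment: test compound, 48 hours, 5 concentrations. Analysis: linear interpolation between bracketing concentrations; unreached endpoints set to highest concentration. GI50 = concentration required for 50% inhibition of growth.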 The source made the active and inactive calls. Cut-off read from the data, not from the text of the source: active = GI50 up to about 1.1 µM and inactive = higher.

How the values were obtained:
Test in all cases: NCI-60 cell line screen, 48 h
[1] = test system: SR
[2] = test system: NCI-H226
[3] = test system: SK-MEL-28
[4] = test system: U-251
[5] = test system: OVCAR-4
[6] = test system: SF-295
[7] = test system: SNB-19
[8] = test system: NCI-H23
[9] = test system: LOX IMVI
[10] = test system: HCT-15
[11] = test system: HOP-62
[12] = test system: SF-539
[13] = test system: UO-31
[14] = test system: SW-620
[15] = test system: NCI-H522
[16] = test system: BT-549
[17] = test system: MDA-N
[18] = test system: SK-OV-3
[19] = test system: HT-29

SMILES | GI50 [1] | GI50 [2] | GI50 [3] | GI50 [4] | GI50 [5] | GI50 [6] | GI50 [7] | GI50 [8] | GI50 [9] | GI50 [10] | GI50 [11] | GI50 [12] | GI50 [13] | GI50 [14] | GI50 [15] | GI50 [16] | GI50 [17] | GI50 [18] | GI50 [19]
CCCCCCCCCCCCC(O)C1CCC(C(O)CCCCCCC(O)CCCCCCCC2=CC(C)OC2=O)O1 (configuration not stated) | 0.407 µM (active) | 48.2 µM (inactive) | 51.9 µM (inactive) | 61.9 µM (inactive) | 34.4 µM (inactive) | 3.86 µM (inactive) | 34.4 µM (inactive) | 0.0109 µM (active) | 13 µM (inactive) | 31.3 µM | 42.3 µM (inactive) | > 10 µM (inactive) | 3.08 µM (inactive) | 8.3 µM (inactive) | 16.5 µM (inactive) | 8.87 µM (inactive) | 17.7 µM (inactive) | – | –
O=C(O)CNn1c(SCC(=O)O)nnc(/C=C/c2c(O)ccc3ccccc23)c1=O | 32.3 µM (inactive) | – | 34.3 µM (inactive) | 35.3 µM (inactive) | 14.1 µM (inactive) | 3.89 µM (inactive) | 64.7 µM (inactive) | 17.1 µM (inactive) | 7.5 µM (inactive) | 17.6 µM | 16.1 µM (inactive) | > 100 µM (inactive) | 29.4 µM (inactive) | 44.9 µM (inactive) | 29.8 µM (inactive) | 15 µM (inactive) | 48.4 µM (inactive) | 5.53 µM (inactive) | 41.9 µM (inactive)
O=C(CNc1ccc(Cl)cc1Cl)NC1C=Cc2ccc(S(=O)(=O)Nc3ccc(Cl)cc3Cl)cc2C1=O (configuration not stated) | > 100 µM (inactive) | > 100 µM (inactive) | > 100 µM (inactive) | > 100 µM (inactive) | – | > 100 µM (inactive) | > 100 µM (inactive) | > 100 µM (inactive) | > 100 µM (inactive) | > 100 µM | > 100 µM (inactive) | > 100 µM (inactive) | 54.2 µM (inactive) | > 100 µM (inactive) | > 100 µM (inactive) | > 100 µM (inactive) | > 100 µM (inactive) | > 100 µM (inactive) | > 100 µM (inactive)
CO/N=C(\C)CCC#Cc1ccccc1C(=O)OC | > 10 µM (inactive) | > 10 µM (inactive) | > 10 µM (inactive) | > 10 µM (inactive) | > 10 µM (inactive) | > 10 µM (inactive) | > 10 µM (inactive) | > 10 µM (inactive) | > 10 µM (inactive) | > 10 µM | > 10 µM (inactive) | > 10 µM (inactive) | > 10 µM (inactive) | > 10 µM (inactive) | – | > 10 µM (inactive) | > 10 µM (inactive) | > 10 µM (inactive) | > 10 µM (inactive)
COC(=O)c1cc2/c(=N/O)c3ccccc3sc2o1 | > 100 µM (inactive) | > 100 µM (inactive) | > 100 µM (inactive) | > 100 µM (inactive) | > 100 µM (inactive) | > 100 µM (inactive) | > 100 µM (inactive) | > 100 µM (inactive) | > 100 µM (inactive) | > 100 µM | > 100 µM (inactive) | > 100 µM (inactive) | – | > 100 µM (inactive) | > 100 µM (inactive) | > 100 µM (inactive) | > 100 µM (inactive) | > 100 µM (inactive) | > 100 µM (inactive)
N=C(N)c1ccc(-c2ccc(-c3ccc(C(=N)N)cc3)o2)cc1 [FURAMIDINE HYDROCHLORIDE] | 29.8 µM (inactive) | 69.2 µM (inactive) | 20.6 µM (inactive) | 16.6 µM (inactive) | > 100 µM (inactive) | 41.4 µM (inactive) | 51.9 µM (inactive) | 22 µM (inactive) | – | 40.9 µM | 29 µM (inactive) | 37.3 µM (inactive) | 15.8 µM (inactive) | 28.5 µM (inactive) | 24.8 µM (inactive) | 37.5 µM (inactive) | 27.5 µM (inactive) | > 100 µM (inactive) | 24.5 µM (inactive)
